# Data from ChEMBL document CHEMBL1122894, “Preparation of 20-(hydroxymethyl)-4-methyl-4-aza-2-oxa-5 alpha-pregnan-3-one as an inhibitor of testosterone 5 alpha-reductase” (J Med Chem, 1985).
# Experiments:
# [1] = Compound was evaluated for in vitro inhibition of Testosterone 5 alpha-Reductase using substrate concentration 3 x 10e-7 M; parameters: species or system Rattus norvegicus
# [2] = organism: Rattus norvegicus; experiment: Comparative activity against Testosterone 5 alpha-Reductase evaluated by setting Ki of 7-(2-Hydroxy-1-methyl-ethyl)-1,4a,6a-trimethyl-hexadecahydro-indeno[5,4-f]quinolin-2-one at 1
Ki [1] [nM],Relative activity [2],Structure (SMILES)
3.8,1,CC(CO)C1CCC2C3CC[C@H]4N(C)C(=O)CCC4(C)C3CCC12C (stereo not given in full)
400,,CC(CO)C1CCC2C3CC[C@H]4N(C)C(=S)OCC4(C)C3CCC12C (stereo not given in full)
7.3,,CCN(CC)C(=O)[C@H]1CC[C@H]2[C@@H]3CC[C@H]4N(C)C(=O)CC[C@]4(C)[C@H]3CC[C@]12C
120,,CC(CO)C1CCC2C3CC[C@H]4N(C)C(=O)OCC4(C)C3CCC12C (stereo not given in full)
